Tests used:
[1] = tested on: rabbit model of venous thromboembolism (VTE); assay: rabbit model of venous thromboembolism (VTE); type: in vivo
From the text: All procedures performed on these animals were in accordance with regulations and established guidelines and were reviewed and approved by an Institutional Animal Care and Use Committee or through an ethical review process. Rabbits were anesthetized according to established protocols. […] Furthermore, for the Rivaroxaban treated animals, the i.v. bolus injection was supplemented by a continuous i.v. infusion of Rivaroxaban to maintain proper dosing throughout the duration of the study due to short half-life concerns. For all treatment groups, 30 minutes after bolus injection, a sheath of the appropriate size was placed in the left femoral vein. Then a wire of approximately 14 cm with 8 strands of cotton thread attached to it (each 3 cm long) was inserted into the femoral vein. Fluoroscopy was used for guidance of the wire with the threads towards the target area in the vena cava. […] After 90 minutes the device was removed by surgical dissection, cut from the wire, and the clot-containing cotton threads were weighed after having been blotted dry. Prior to IgG dosing, and also prior to surgical removal of threads, a blood sample was drawn for preparation of serum (PK) and plasma (for PD biomarkers APTT and PT).

rabbit cuticle bleeding = rabbit cuticle bleeding study; type: in vivo; conditions: 1.5 mg/kg i.v. bolus plus infusion
Description: All procedures performed on these animals were in accordance with regulations and established guidelines and were reviewed and approved by an Institutional Animal Care and Use Committee or through an ethical review process. Rabbits were anesthetized according to established protocols. After anesthesia and cannulation etc., both front paws were shaved to remove fur that would otherwise contaminate saline and wick it out of the tube. Pre dosing bleeds were performed on the middle digit of the left front paw. Post dosing bleeds were performed on the same digit on the right front paw. There were four dosing groups of 10 animals each. […] Furthermore, for the Rivaroxaban treated animals, the i.v. bolus injection was supplemented by a continuous i.v. infusion of Rivaroxaban to maintain proper dosing throughout the duration of the study due to short half-life concerns. Nails were transilluminated with white light to visualize the quick and cut with a razor blade so as to transect the cuticle approximately 1 mm proximal to the apex of the quick. The nail was then immediately immersed in a saline solution in 10×75 mm 3 ml polystyrene (clear) tube. The tube with saline was stored at 37° C. before the cut. The nail was kept in the solution and time to cessation of flow was measured. […] At the end of the blood collection the tube is capped and inverted 5 times and centrifuged at 200 to 250×g for 15 min. The blood cell pellet was resuspended in 3 mL erythrocyte lysis buffer (8.3 g/L NH4Cl, 1.0 g/LKHCO3, and 0.037 g/L EDTA in water). After at least 15 min of lysis time, hemoglobin (Hb) concentration was measured at OD 575 nm using a Spectrophotometer) and expressed as arbitrary absorbance units. As indicated above, baseline cuticle bleeding times were performed prior to dosing. […] 30 minutes later a second cuticle cut was made and bleeding times recorded and blood loss measured. […]

[2] = 1.5 mg/kg i.v. bolus plus continuous infusion

O=C(NC[C@H]1CN(c2ccc(N3CCOCC3=O)cc2)C(=O)O1)c1ccc(Cl)s1 [Rivaroxaban]
any read outs measured (thrombus weight, APTT, PT) ([1]; 0.045 mg/kg i.v. bolus plus continuous infusion): No effects
thrombus/clot weight [1, 2]: decreased thrombus/clot weight
time to clotting in APTT assay [1, 2]: prolonged time to clotting
time to clotting in PT assay [1, 2]: prolonged time to clotting
time to clotting in APTT coagulation assay (rabbit cuticle bleeding): significant prolongation in time to clotting
time to clotting in PT coagulation assay (rabbit cuticle bleeding): significant prolongation in time to clotting
total blood loss following cuticle cutting (rabbit cuticle bleeding): significantly increased total blood loss

Source: US11066481B2, “Antibodies to coagulation factor XIa and uses thereof” (THE REGENTS OF THE UNIVERSITY OF CALIFORNIA, priority 2015, dated 2021)
